In article PMC10600239, “Selective MCL-1 inhibitor ABBV-467 is efficacious in tumor models but is associated with cardiac troponin increases in patients” (Communications Medicine, 2023):
Read-outs that look alike come from different tables or passages of the source.

Columns and labels:
Experiment in all cases: Off-target profiling (Supplementary Data 1)
[1] = molecular target: off-target receptors, ion channels, and transporters (Homo sapiens, UniProt P24941); settings: TR-FRET Kinome; Invitrogen A-1233106.2 .025(Subs Conc)
[2] = molecular target: off-target receptors, ion channels, and transporters (Homo sapiens, UniProt P15056); settings: TR-FRET Kinome; Invitrogen A-1196442.2 .05(Subs Conc)
Chain of off-target receptors, ion channels, and transporters (Homo sapiens, UniProt P15056) (P15056 whole entry): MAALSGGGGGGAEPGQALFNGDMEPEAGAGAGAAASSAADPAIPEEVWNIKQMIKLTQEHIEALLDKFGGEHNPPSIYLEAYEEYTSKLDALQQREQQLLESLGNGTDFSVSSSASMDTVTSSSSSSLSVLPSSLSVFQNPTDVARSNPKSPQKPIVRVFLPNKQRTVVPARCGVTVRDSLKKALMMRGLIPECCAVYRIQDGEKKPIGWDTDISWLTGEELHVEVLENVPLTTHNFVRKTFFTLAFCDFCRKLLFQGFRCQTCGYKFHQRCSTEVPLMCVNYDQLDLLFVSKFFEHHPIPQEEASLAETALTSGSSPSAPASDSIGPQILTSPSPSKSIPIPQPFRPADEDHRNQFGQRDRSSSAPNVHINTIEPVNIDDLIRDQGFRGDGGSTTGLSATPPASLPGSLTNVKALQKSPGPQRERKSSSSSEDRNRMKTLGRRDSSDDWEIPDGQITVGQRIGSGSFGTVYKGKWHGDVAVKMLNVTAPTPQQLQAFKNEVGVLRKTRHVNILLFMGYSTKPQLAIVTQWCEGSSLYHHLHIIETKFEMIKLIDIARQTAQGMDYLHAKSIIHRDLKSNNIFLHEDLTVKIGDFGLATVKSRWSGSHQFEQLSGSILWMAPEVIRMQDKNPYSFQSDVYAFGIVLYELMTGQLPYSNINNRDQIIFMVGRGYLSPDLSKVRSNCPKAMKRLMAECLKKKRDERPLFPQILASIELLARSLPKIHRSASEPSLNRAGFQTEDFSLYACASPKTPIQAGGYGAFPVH

[3] = molecular target: off-target receptors, ion channels, and transporters (Homo sapiens, UniProt P00519); settings: TR-FRET Kinome; Invitrogen A-1196581.2 .007(Subs Conc)
[4] = molecular target: off-target receptors, ion channels, and transporters (Homo sapiens, UniProt Q07912); settings: TR-FRET Kinome; Invitrogen A-1169612.6 .025(Subs Conc)
[5] = molecular target: off-target receptors, ion channels, and transporters (Homo sapiens, UniProt Q9H4B4); settings: TR-FRET Kinome; Invitrogen A-1224615.7 .2(Subs Conc)
Chain of off-target receptors, ion channels, and transporters (Homo sapiens, UniProt Q9H4B4) (Q9H4B4 whole entry): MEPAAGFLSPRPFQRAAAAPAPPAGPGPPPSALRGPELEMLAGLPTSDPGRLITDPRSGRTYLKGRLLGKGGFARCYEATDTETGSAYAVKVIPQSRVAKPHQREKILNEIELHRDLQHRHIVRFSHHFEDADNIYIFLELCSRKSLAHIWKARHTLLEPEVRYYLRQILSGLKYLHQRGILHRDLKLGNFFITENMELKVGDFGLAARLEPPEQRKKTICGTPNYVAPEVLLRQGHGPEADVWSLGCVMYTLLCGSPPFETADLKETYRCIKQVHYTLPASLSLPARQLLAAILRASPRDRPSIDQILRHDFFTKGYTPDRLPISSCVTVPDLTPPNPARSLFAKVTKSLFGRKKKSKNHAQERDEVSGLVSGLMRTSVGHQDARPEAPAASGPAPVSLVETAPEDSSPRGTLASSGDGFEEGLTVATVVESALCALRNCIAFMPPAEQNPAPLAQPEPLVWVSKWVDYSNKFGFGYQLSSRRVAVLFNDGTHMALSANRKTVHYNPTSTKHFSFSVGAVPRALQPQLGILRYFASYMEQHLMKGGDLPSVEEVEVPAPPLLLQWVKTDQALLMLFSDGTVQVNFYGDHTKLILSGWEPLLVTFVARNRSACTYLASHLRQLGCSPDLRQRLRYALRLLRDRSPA

[6] = molecular target: off-target receptors, ion channels, and transporters (Homo sapiens, UniProt Q9UHD2); settings: TR-FRET Kinome; Invitrogen A-1167389.7 .00625(Subs Conc)
[7] = molecular target: off-target receptors, ion channels, and transporters (Homo sapiens, UniProt P49841); settings: TR-FRET Kinome; Invitrogen A-1169612.6 .006(Subs Conc)
[8] = molecular target: off-target receptors, ion channels, and transporters (Homo sapiens, UniProt O43318); settings: TR-FRET Kinome, SignalChem A-1167389.7 .05(Subs Conc)
Chain of off-target receptors, ion channels, and transporters (Homo sapiens, UniProt O43318) (O43318 1-303): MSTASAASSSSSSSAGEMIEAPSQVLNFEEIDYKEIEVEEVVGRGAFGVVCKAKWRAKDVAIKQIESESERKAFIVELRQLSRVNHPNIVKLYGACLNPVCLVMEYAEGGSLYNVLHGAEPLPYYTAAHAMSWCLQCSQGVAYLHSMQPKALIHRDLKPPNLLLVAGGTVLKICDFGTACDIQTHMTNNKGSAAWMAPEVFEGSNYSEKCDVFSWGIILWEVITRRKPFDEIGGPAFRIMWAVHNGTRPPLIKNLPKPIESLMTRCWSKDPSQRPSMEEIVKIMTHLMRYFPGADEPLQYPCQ
Chain of off-target receptors, ion channels, and transporters (Homo sapiens, UniProt O43318) (Q15750 437-504 partner): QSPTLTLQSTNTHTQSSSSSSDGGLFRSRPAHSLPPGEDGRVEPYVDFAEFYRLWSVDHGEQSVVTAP

[9] = molecular target: off-target receptors, ion channels, and transporters (Homo sapiens, UniProt Q9UM73); settings: TR-FRET Kinome; Millipore A-1167389.7 .05(Subs Conc)
[10] = molecular target: off-target receptors, ion channels, and transporters (Homo sapiens, UniProt P24530)
Chain of off-target receptors, ion channels, and transporters (Homo sapiens, UniProt P24530) (P24530 27-442): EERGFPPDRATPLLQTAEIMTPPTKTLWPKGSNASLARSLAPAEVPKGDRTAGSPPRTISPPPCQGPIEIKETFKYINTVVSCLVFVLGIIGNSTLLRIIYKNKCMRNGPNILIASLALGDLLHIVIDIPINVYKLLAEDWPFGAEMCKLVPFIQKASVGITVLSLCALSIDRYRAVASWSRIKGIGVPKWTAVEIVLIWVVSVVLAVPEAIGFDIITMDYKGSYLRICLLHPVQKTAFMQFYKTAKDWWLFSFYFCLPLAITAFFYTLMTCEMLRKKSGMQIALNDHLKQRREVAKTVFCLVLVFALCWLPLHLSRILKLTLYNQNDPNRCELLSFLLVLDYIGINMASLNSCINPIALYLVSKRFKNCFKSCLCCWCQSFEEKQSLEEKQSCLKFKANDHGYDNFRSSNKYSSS

[11] = molecular target: off-target receptors, ion channels, and transporters (Homo sapiens, UniProt Q13627); settings: TR-FRET Kinome; Invitrogen A-1180691.2 .0125(Subs Conc)
[12] = molecular target: off-target receptors, ion channels, and transporters (Homo sapiens, UniProt P28223)
Chain of off-target receptors, ion channels, and transporters (Homo sapiens, UniProt P28223) (P28223 whole entry): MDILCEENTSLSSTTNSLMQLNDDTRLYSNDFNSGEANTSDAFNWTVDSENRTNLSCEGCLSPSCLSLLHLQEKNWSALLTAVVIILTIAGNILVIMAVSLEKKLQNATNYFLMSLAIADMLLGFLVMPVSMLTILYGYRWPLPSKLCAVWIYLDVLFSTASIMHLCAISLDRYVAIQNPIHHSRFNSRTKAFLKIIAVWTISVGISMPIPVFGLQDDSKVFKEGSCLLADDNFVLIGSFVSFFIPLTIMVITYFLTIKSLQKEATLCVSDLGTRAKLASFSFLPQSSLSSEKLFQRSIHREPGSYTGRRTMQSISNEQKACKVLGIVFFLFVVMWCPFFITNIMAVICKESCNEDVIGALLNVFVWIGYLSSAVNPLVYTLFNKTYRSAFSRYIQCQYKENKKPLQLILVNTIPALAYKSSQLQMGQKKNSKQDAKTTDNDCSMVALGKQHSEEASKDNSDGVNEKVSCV

[13] = molecular target: off-target receptors, ion channels, and transporters (Homo sapiens, UniProt P08581); settings: TR-FRET Kinome; Invitrogen A-1196581.2 .003(Subs Conc)
[14] = molecular target: off-target receptors, ion channels, and transporters (Homo sapiens, UniProt Q9UL54); settings: TR-FRET Kinome; Invitrogen A-1169612.6 .2(Subs Conc)
[15] = molecular target: off-target receptors, ion channels, and transporters (Homo sapiens, UniProt P08588)
Chain of off-target receptors, ion channels, and transporters (Homo sapiens, UniProt P08588) (P08588 whole entry): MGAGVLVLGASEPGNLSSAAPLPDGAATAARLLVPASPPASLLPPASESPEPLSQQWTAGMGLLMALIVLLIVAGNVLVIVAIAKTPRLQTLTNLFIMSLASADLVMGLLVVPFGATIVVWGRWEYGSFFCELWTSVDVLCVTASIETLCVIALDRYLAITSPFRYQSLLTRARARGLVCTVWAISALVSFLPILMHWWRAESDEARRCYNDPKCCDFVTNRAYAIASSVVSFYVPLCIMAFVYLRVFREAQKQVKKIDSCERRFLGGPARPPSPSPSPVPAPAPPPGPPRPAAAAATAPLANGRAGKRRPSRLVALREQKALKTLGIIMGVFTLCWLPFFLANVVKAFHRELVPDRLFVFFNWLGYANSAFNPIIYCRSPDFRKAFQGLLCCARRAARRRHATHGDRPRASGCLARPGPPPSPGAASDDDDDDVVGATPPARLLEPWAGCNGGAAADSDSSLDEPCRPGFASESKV

[16] = molecular target: off-target receptors, ion channels, and transporters (Homo sapiens, UniProt Q08345); settings: TR-FRET Kinome; Invitrogen A-1196581.2 .003(Subs Conc)
[17] = molecular target: off-target receptors, ion channels, and transporters (Homo sapiens, UniProt P30542)
Chain of off-target receptors, ion channels, and transporters (Homo sapiens, UniProt P30542) (P30542 whole entry): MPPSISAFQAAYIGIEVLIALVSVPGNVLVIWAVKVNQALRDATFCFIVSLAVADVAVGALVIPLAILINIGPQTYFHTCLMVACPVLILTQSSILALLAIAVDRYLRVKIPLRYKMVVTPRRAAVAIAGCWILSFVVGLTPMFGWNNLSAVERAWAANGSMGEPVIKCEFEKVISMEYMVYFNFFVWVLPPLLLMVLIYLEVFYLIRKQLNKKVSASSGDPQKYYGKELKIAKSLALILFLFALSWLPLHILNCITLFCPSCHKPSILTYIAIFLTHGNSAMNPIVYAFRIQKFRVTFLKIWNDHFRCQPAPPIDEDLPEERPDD

[18] = molecular target: off-target receptors, ion channels, and transporters (Homo sapiens, UniProt P28482); settings: TR-FRET Kinome; Invitrogen A-1224127.6 .05(Subs Conc)
[19] = molecular target: off-target receptors, ion channels, and transporters (Homo sapiens, UniProt P21554)
Chain of off-target receptors, ion channels, and transporters (Homo sapiens, UniProt P21554) (P21554 whole entry): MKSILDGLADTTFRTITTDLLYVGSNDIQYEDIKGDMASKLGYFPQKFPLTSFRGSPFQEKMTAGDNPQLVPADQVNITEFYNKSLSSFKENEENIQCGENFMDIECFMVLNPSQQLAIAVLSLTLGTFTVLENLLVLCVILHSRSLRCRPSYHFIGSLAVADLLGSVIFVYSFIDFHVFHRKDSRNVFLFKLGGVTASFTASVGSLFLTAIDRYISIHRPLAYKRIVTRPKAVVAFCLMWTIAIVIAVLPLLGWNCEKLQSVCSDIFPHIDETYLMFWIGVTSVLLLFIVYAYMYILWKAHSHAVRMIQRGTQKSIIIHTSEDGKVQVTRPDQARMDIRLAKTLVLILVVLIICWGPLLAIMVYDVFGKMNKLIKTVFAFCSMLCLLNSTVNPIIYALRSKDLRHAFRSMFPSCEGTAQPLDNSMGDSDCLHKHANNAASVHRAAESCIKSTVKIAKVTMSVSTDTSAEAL

[20] = molecular target: off-target receptors, ion channels, and transporters (Homo sapiens, UniProt P42680); settings: TR-FRET Kinome; SignalChem A-1214384.2 .02(Subs Conc)
[21] = molecular target: off-target receptors, ion channels, and transporters (Homo sapiens, UniProt Q05397); settings: TR-FRET Kinome; Invitrogen A-1167389.7 .05(Subs Conc)
[22] = molecular target: off-target receptors, ion channels, and transporters (Homo sapiens, UniProt P48729); settings: TR-FRET Kinome; Invitrogen A-1180691.2 .05(Subs Conc)
Chain of off-target receptors, ion channels, and transporters (Homo sapiens, UniProt P48729) (P48729 whole entry): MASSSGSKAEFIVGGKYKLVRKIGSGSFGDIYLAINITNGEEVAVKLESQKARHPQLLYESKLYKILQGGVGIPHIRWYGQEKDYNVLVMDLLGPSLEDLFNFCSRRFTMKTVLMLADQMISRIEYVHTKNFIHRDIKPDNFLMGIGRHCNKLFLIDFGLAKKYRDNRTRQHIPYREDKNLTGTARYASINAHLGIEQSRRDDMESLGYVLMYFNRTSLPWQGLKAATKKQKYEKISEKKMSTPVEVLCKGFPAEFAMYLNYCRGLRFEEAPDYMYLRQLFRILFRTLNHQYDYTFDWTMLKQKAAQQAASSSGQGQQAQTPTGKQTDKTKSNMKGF

[23] = molecular target: off-target receptors, ion channels, and transporters (Homo sapiens, UniProt P37231); settings: Bioprofiling 6pt Ag
[24] = molecular target: off-target receptors, ion channels, and transporters; settings: for EC50: Bioprofiling 6pt Ag
[25] = molecular target: off-target receptors, ion channels, and transporters (Homo sapiens, UniProt Q9UQM7); settings: TR-FRET Kinome; Invitrogen A-1169612.6 .003(Subs Conc)
Chain of off-target receptors, ion channels, and transporters (Homo sapiens, UniProt Q9UQM7) (Q9UQM7 whole entry): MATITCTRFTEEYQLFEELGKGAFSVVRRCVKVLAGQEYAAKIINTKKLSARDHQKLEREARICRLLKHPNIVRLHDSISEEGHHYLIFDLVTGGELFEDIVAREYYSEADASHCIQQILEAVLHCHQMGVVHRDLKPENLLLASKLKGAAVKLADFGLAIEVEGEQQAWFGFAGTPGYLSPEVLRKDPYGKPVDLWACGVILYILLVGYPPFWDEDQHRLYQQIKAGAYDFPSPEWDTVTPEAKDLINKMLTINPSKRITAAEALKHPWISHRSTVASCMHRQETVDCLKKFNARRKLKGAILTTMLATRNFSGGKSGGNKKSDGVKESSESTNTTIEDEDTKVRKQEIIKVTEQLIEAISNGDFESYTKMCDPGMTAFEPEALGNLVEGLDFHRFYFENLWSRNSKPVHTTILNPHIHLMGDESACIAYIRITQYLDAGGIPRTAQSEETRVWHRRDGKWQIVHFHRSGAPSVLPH

Compound: Cc1c(Cl)c2c(Cl)c(C)c1-c1c(-c3ccc(F)cc3)sc3ncnc(c13)O[C@@H](C(=O)O)Cc1cc(ccc1OCc1ccnc(-c3ccc(OC[C@H]4COCCO4)cc3)n1)OC[C@@H](CN1CCN(C)CC1)O2 [ABBV-467]
- cdk2 - IC50 [1]: > 10 µM
- BRAF - IC50 [2]: > 10 µM
- Abl - IC50 [3]: > 10 µM
- TNK2 - IC50 [4]: > 10 µM
- Plk3 - IC50 [5]: > 10 µM
- TBK1 - IC50 [6]: > 10 µM
- Gsk3b - IC50 [7]: 9.9 µM
- IC50 ([8]; read-out: TAK1-TAB1 - IC50): > 10 µM
- Ki ([8]; read-out: TAK1-TAB1 - Ki): > 3.91 µM
- ALK - IC50 [9]: > 10 µM
- ETB CHO Human - EC50 ([10]; Bioprofiling 6pt Ag): > 10 µM
- ETB CHO Human - IC50 ([10]; Bioprofiling 6pt Antag, BQ-3020): > 10 µM
- Dyrk1A - IC50 [11]: > 10 µM
- 5-HT2A CHO Human - EC50 ([12]; Bioprofiling 6pt Ag): > 10 µM
- 5-HT2A CHO Human - IC50 ([12]; Bioprofiling 6pt Antag, Serotonin (5-HT)): > 10 µM
- cMET - IC50 [13]: > 10 µM
- TAOK2 - IC50 [14]: > 10 µM
- Beta1 CHO Human - EC50 ([15]; Bioprofiling 6pt Ag): > 10 µM
- Beta1 CHO Human - IC50 ([15]; Bioprofiling 6pt Antag, Norepinephrine): > 10 µM
- DDR1 - IC50 [16]: > 10 µM
- A1 CHO Human - EC50 ([17]; Bioprofiling 6pt Ag): > 10 µM
- A1 CHO Human - IC50 ([17]; Bioprofiling 6pt Antag, N6-Cyclopentyladenosine (CPA)): > 10 µM
- Erk2 - IC50 [18]: > 10 µM
- CB1 CHO Human - EC50 ([19]; Bioprofiling 6pt Ag): > 10 µM
- CB1 CHO Human - IC50 ([19]; Bioprofiling 6pt Antag, WIN 55,212-2): > 10 µM
- TEC - IC50 [20]: > 10 µM
- FAK - IC50 [21]: > 10 µM
- Ck1alpha1 - IC50 [22]: > 10 µM
- PPARgamma Human - EC50 [23]: > 10 µM
- EC50 ([24]; read-out: CHO Hamster - EC50): > 10 µM
- EC50 ([24]; read-out: Cav1.2 (L-type) ND7/23 Mouse/Rat - EC50): > 10 µM
- IC50 ([24]; read-out: Cav1.2 (L-type) ND7/23 Mouse/Rat - IC50, Bioprofiling 6pt Antag, KCl): > 10 µM
- CAMK2A - IC50 [25]: > 10 µM
